Where a name gives a salt, the structure may show the parent alone.
Tests used:
[1] = test system: HR, PR, and QRS of healthy volunteers; test: PK-PD analysis of other ECG parameters; format: in vivo, human
healthy volunteers = test: ECG outlier analyses; format: in vivo, human
[2] = test system: QT/QTc interval of healthy volunteers; test: Concentration-QTc
[3] = test system: QTcF interval of healthy volunteers; test: Time-matched analysis of placebo-adjusted change from baseline QTcF; format: in vivo, human

`O=c1n(CCCN2CCN(c3cccc(Cl)c3)CC2)nc2ccccn12` [Trazodone, Trazodone hydrochloride] was tested, and the “Slope of HR change from baseline vs trazodone plasma concentration” value ([1]; SE 0.8013) was 2.199, the “Slope of PR change from baseline vs trazodone plasma concentration” value ([1]; in vivo) was “–3.6040” and the “Slope of QRS change from baseline vs trazodone plasma concentration” value ([1]; in vivo) was 0.0445. The “Predicted placebo-adjusted and baseline-corrected HR at mean Cmax” value ([1]; trazodone 20 mg) was 1.45 bpm, the “Predicted placebo-adjusted and baseline-corrected HR at mean Cmax” value ([1]; trazodone 60 mg) was 2.12 bpm and the “Predicted placebo-adjusted and baseline-corrected HR at mean Cmax” value ([1]; trazodone 140 mg) was 2.76 bpm. The “Predicted placebo-adjusted and baseline-corrected PR at predicted Cmax” value ([1]; trazodone 140 mg) was “–7.4 ms”, the “Predicted placebo-adjusted and baseline-corrected QRS at predicted Cmax” value ([1]; trazodone 140 mg) was 0.115 ms and the “Heart rate: Bradycardic outliers” value (healthy volunteers; trazodone 20 mg, n = 18) was 0 n (%). For the same compound, the “Heart rate: Tachycardic outliers” value (healthy volunteers; trazodone 20 mg, n = 18) was 0 n (%), the “PR interval: Outliers” value (healthy volunteers; trazodone 20 mg, n = 18) was 1 (6) n (%) and the “QRS interval: Outliers” value (healthy volunteers; trazodone 20 mg, n = 18) was 0 n (%). The “QTcF >30‐60 ms inc change from baseline” value (healthy volunteers; trazodone 20 mg, n = 18) was 0 n (%), the “QTcF >60 ms inc change from baseline” value (healthy volunteers; trazodone 20 mg, n = 18) was 0 n (%) and the “QTcF New >480 ms” value (healthy volunteers; trazodone 20 mg, n = 18) was 0 n (%). The “QTcF New >500 ms” value (healthy volunteers; trazodone 20 mg, n = 18) was 0 n (%), the “Heart rate: Bradycardic outliers” value (healthy volunteers; trazodone 60 mg, n = 18) was 0 n (%) and the “Heart rate: Tachycardic outliers” value (healthy volunteers; trazodone 60 mg, n = 18) was 1 (6) n (%). For the same compound, the “PR interval: Outliers” value (healthy volunteers; trazodone 60 mg, n = 18) was 0 n (%), the “QRS interval: Outliers” value (healthy volunteers; trazodone 60 mg, n = 18) was 0 n (%) and the “QTcF >30‐60 ms inc change from baseline” value (healthy volunteers; trazodone 60 mg, n = 18) was 1 (6) n (%). For the same compound, the “QTcF >60 ms inc change from baseline” value (healthy volunteers; trazodone 60 mg, n = 18) was 0 n (%), the “QTcF New >480 ms” value (healthy volunteers; trazodone 60 mg, n = 18) was 0 n (%) and the “QTcF New >500 ms” value (healthy volunteers; trazodone 60 mg, n = 18) was 0 n (%). The “Heart rate: Bradycardic outliers” value (healthy volunteers; trazodone 140 mg, n = 20) was 1 (5) n (%), the “Heart rate: Tachycardic outliers” value (healthy volunteers; trazodone 140 mg, n = 20) was 2 (10) n (%) and the “PR interval: Outliers” value (healthy volunteers; trazodone 140 mg, n = 20) was 1 (5) n (%). The “QRS interval: Outliers” value (healthy volunteers; trazodone 140 mg, n = 20) was 0 n (%), the “QTcF >30‐60 ms inc change from baseline” value (healthy volunteers; trazodone 140 mg, n = 20) was 6 (30) n (%) and the “QTcF >60 ms inc change from baseline” value (healthy volunteers; trazodone 140 mg, n = 20) was 0 n (%). The “QTcF New >480 ms” value (healthy volunteers; trazodone 140 mg, n = 20) was 2 (10) n (%), the “QTcF New >500 ms” value (healthy volunteers; trazodone 140 mg, n = 20) was 0 n (%) and the “Predicted Mean Effect at Mean Cmax (placebo-corrected change from baseline QTcF, ΔΔQTcF)” value ([2]; trazodone 60 mg, mean Cmax 1269.0 ng/mL) was 12.3 ms. The “Predicted Mean Effect at Mean Cmax (placebo-corrected change from baseline QTcF, ΔΔQTcF)” value ([2]; trazodone 140 mg, mean Cmax 2083.5 ng/mL) was 19.8 ms, the “Placebo-adjusted change from baseline QTcF, estimate (90%CI)” value (from here on “Placebo-adjusted change … (90%CI)”) ([3]; trazodone 20 mg, N = 16, 5 min postdose) was “–3.3 (–7.8 to 1.1) ms” and the “Placebo-adjusted change … (90%CI)” value ([3]; trazodone 20 mg, N = 16, 10 min postdose) was “–1.2 (–6.2 to 3.8) ms”. The “Placebo-adjusted change … (90%CI)” value ([3]; trazodone 20 mg, N = 16, 20 min postdose) was “–0.2 (–5.4 to 5.0) ms”, the “Placebo-adjusted change … (90%CI)” value ([3]; trazodone 20 mg, N = 16, 0.5 h postdose) was 2.1 (–0.3 to 4.6) ms and the “Placebo-adjusted change … (90%CI)” value ([3]; trazodone 20 mg, N = 16, 1 h postdose) was 6.6 (1.5–11.7) ms. The “Placebo-adjusted change … (90%CI)” value ([3]; trazodone 20 mg, N = 16, 2 h postdose) was 3.5 (0.5–6.5) ms, the “Placebo-adjusted change … (90%CI)” value ([3]; trazodone 20 mg, N = 16, 3 h postdose) was 1.7 (–2.7 to 6.1) ms and the “Placebo-adjusted change … (90%CI)” value ([3]; trazodone 20 mg, N = 16, 4 h postdose) was 3.2 (–2.3 to 8.6) ms. The “Placebo-adjusted change … (90%CI)” value ([3]; trazodone 20 mg, N = 16, 6 h postdose) was “–0.2 (–4.8 to 4.3) ms”, the “Placebo-adjusted change … (90%CI)” value ([3]; trazodone 20 mg, N = 16, 8 h postdose) was 1.2 (–2.3 to 4.6) ms and the “Placebo-adjusted change … (90%CI)” value ([3]; trazodone 20 mg, N = 16, 12 h postdose) was 0.6 (–4.7 to 5.8) ms. The “Placebo-adjusted change … (90%CI)” value ([3]; trazodone 20 mg, N = 16, 16 h postdose) was “–3.3 (–6.9 to 0.3) ms”, the “Placebo-adjusted change … (90%CI)” value ([3]; trazodone 20 mg, N = 16, 24 h postdose) was 1.8 (–3.5 to 7.1) ms and the “Placebo-adjusted change … (90%CI)” value ([3]; trazodone 60 mg, N = 16, 5 min postdose) was “–2.3 (–6.7 to 2.1) ms”. For the same compound, the “Placebo-adjusted change … (90%CI)” value ([3]; trazodone 60 mg, N = 16, 10 min postdose) was 0.3 (–4.1 to 4.6) ms, the “Placebo-adjusted change … (90%CI)” value ([3]; trazodone 60 mg, N = 16, 20 min postdose) was 4.8 (–0.4 to 10.0) ms and the “Placebo-adjusted change … (90%CI)” value ([3]; trazodone 60 mg, N = 16, 0.5 h postdose) was 11.9 (8.6–15.3) ms. For the same compound, the “Placebo-adjusted change … (90%CI)” value ([3]; trazodone 60 mg, N = 16, 2 h postdose) was 8.8 (4.2–13.4) ms, the “Placebo-adjusted change … (90%CI)” value ([3]; trazodone 60 mg, N = 16, 3 h postdose) was 6.1 (1.9–10.2) ms and the “Placebo-adjusted change … (90%CI)” value ([3]; trazodone 60 mg, N = 16, 4 h postdose) was 7.9 (4.3–11.5) ms. For the same compound, the “Placebo-adjusted change … (90%CI)” value ([3]; trazodone 60 mg, N = 16, 6 h postdose) was 2.2 (–1.8 to 6.2) ms, the “Placebo-adjusted change … (90%CI)” value ([3]; trazodone 60 mg, N = 16, 8 h postdose) was “–0.4 (–3.4 to 2.7) ms” and the “Placebo-adjusted change … (90%CI)” value ([3]; trazodone 60 mg, N = 16, 12 h postdose) was 6.4 (1.7–11.0) ms.
